Results from US7759345B2, “Antitumoral derivatives of ET-743” (priority 2001, dated 2010).
Like-named read-outs stand apart in the source and are kept apart here.

Columns and labels:
HT-29 = assay: Inhibition of cell growth by counting cells, HT-29; format: cell-based, human; settings: three days of incubation, read-out: IC50 (molar) HT-29
Protocol: (§1) 1°.—Inhibition of Cell Growth by Counting Cells.
(§2) This form of the assay employs 24 well multidishes of 16 mm diameter (Bergeron, 1984; Schroeder, 1981). The tumor cell lines employed are: P-388 (ATCC CCL 46), suspension culture of a lymphoid neoplasm from a DBA/2 mouse; A-549 (ATCC CCL 185), monolayer culture of a human lung carcinoma; HT-29 (ATCC HTB-38), monolayer culture of a human colon carcinoma; MEL-28 (ATCC HTB-72), monolayer culture of a human melanoma and DU-145 (ATCC HTB-81), monolayer culture of a human prostate carcinoma.
(§3) Cells were maintained, in logarithmic phase of growth in Eagle's Minimum Essential Medium, with Earle's Balanced Salts, with non-essential amino acids, with 2.0 mM L-Glutamine, without sodium bicarbonate (EMEM/neaa), supplemented with 10% Fetal Calf Serum (FCS), 10^−2 M. sodium bicarbonate and 0.1 U/l penicillin G+0.1 g/l streptomycin sulfate. For the experiments, cells are harvested from subconfluent cultures using trypsin and resuspended in fresh medium before plating.
(§4) A-549, HT-29, MEL-28 and DU-145 cells were seeded into 16 mm diameter wells at 1×10^4 cells per well in 1 ml aliquots of EMEM 5% FCS containing different concentrations of the sample to be tested. A separate set of cultures without drug was seeded as control of growth, to ensure that cells remained in exponential phase of growth. All determinations are carrying out in duplicate. After three days of incubation at 37° C., 5% CO2 in a 98% humid atmosphere cells were stained with 0.1% crystal violet. An approximately IC50 was determined by comparing the growth in wells with drug to the growth in wells control.
(§5) For quantifying the activity, after the incubation time, cells are trypsinized and counted in a Coulter Counter ZM. All counts (net cells per well), represent the average of duplicate wells. % G, percent of growth relative to cultures without drug. The results of these assays are used to generate dose-response curves from which more precise IC50 values are determined (sample concentration which produces 50% cell growth inhibition).
(§6) Obtained results may predict the usefulness of a certain drug as a potential cancer treatment. For this technique, compounds which show IC50 values smaller than 1 μg/ml are selected to continue with further studies. IC50's data allow to predict that not only could a drug be cystostatic, but also it could have a potential in terms of tumor reduction.

A-549 = assay: Inhibition of cell growth by counting cells, A-549; format: cell-based, human; settings: three days of incubation, read-out: IC50 (molar) A-549
Protocol: as §1, §2, §3, §4, §5, §6

Compound	IC50 (HT-29; Homo sapiens, HT-29, 72 h)	IC50 (A-549; Homo sapiens, A549, 72 h)	IC50 (HT-29)	IC50 (A-549)
COc1cc2c(cc1OC(=O)OC(C)(C)C)CCN[C@]21CS[C@@H]2c3c(OC(=O)CCCl)c(C)c4c(c3[C@H](COC1=O)N1C2[C@H]2c3c(cc(C)c(OC)c3O)C[C@@H]([C@@H]1C#N)N2C)OCO4 (some centres unmarked) [Compound 116]	0.109 nM	0.109 nM	–	–
COc1cc2c(cc1OC(=O)OC(C)(C)C)CCN[C@]21CS[C@@H]2c3c(OC)c(C)c4c(c3[C@H](COC1=O)N1C2[C@H]2c3c(cc(C)c(OC)c3O)C[C@@H]([C@@H]1C#N)N2C)OCO4 (some centres unmarked) [Compound 126]	–	–	0.119 nM	0.119 nM
COc1cc2c(cc1OC(=O)OC(C)(C)C)CCN[C@]21CS[C@@H]2c3c(OC)c(C)c4c(c3[C@H](COC1=O)N1C2[C@H]2c3c(cc(C)c(OC)c3OC)C[C@@H]([C@@H]1C#N)N2C)OCO4 (some centres unmarked) [Compound 127]	–	–	0.117 nM	0.117 nM
CCOc1c(C)c2c(c3c1[C@H]1SC[C@]4(NCCc5cc(OC(=O)OC(C)(C)C)c(OC)cc54)C(=O)OC[C@@H]3N3C1[C@H]1c4c(cc(C)c(OC)c4O)C[C@@H]([C@@H]3C#N)N1C)OCO2 (some centres unmarked) [Compound 128]	1.17 nM	1.17 nM	–	–
CCOc1c(C)c2c(c3c1[C@H]1SC[C@]4(NCCc5cc(OC(=O)OC(C)(C)C)c(OC)cc54)C(=O)OC[C@@H]3N3C1[C@H]1c4c(cc(C)c(OC)c4OCC)C[C@@H]([C@@H]3C#N)N1C)OCO2 (some centres unmarked) [Compound 129]	11.3 nM	11.3 nM	–	–
CCCOc1c(C)c2c(c3c1[C@H]1SC[C@]4(NCCc5cc(OC(=O)OC(C)(C)C)c(OC)cc54)C(=O)OC[C@@H]3N3C1[C@H]1c4c(cc(C)c(OC)c4O)C[C@@H]([C@@H]3C#N)N1C)OCO2 (some centres unmarked) [Compound 130]	1.15 nM	1.15 nM	–	–
CCCOc1c(C)c2c(c3c1[C@H]1SC[C@]4(NCCc5cc(OC(=O)OC(C)(C)C)c(OC)cc54)C(=O)OC[C@@H]3N3C1[C@H]1c4c(cc(C)c(OC)c4OCCC)C[C@@H]([C@@H]3C#N)N1C)OCO2 (some centres unmarked) [Compound 131]	110 nM	110 nM	–	–
C=CCOc1c(C)c2c(c3c1[C@H]1SC[C@]4(NCCc5cc(OC(=O)OC(C)(C)C)c(OC)cc54)C(=O)OC[C@@H]3N3C1[C@H]1c4c(cc(C)c(OC)c4O)C[C@@H]([C@@H]3C#N)N1C)OCO2 (some centres unmarked) [Compound 132]	1.15 nM	1.15 nM	–	–
C=CCOc1c(C)c2c(c3c1[C@H]1SC[C@]4(NCCc5cc(OC(=O)OC(C)(C)C)c(OC)cc54)C(=O)OC[C@@H]3N3C1[C@H]1c4c(cc(C)c(OC)c4OCC=C)C[C@@H]([C@@H]3C#N)N1C)OCO2 (some centres unmarked) [Compound 133]	110 nM	110 nM	–	–
COc1cc2c(cc1O)CCN[C@]21CS[C@@H]2c3c(OC(=O)/C=C/c4ccccc4)c(C)c4c(c3[C@H](COC1=O)N1C2[C@H]2c3c(cc(C)c(OC)c3OC(=O)/C=C/c3ccccc3)C[C@@H]([C@@H]1C#N)N2C)OCO4 (some centres unmarked) [Compound 138]	1.01 nM	1.01 nM	–	–
CCCC(=O)Oc1c(C)c2c(c3c1[C@H]1SC[C@]4(NCCc5cc(O)c(OC)cc54)C(=O)OC[C@@H]3N3C1[C@H]1c4c(cc(C)c(OC)c4O)C[C@@H]([C@@H]3C#N)N1C)OCO2 (some centres unmarked) [Compound 139]	1.25 nM	1.25 nM	–	–
CCCC(=O)Oc1c(C)c2c(c3c1[C@H]1SC[C@]4(NCCc5cc(O)c(OC)cc54)C(=O)OC[C@@H]3N3C1[C@H]1c4c(cc(C)c(OC)c4OC(=O)CCC)C[C@@H]([C@@H]3C#N)N1C)OCO2 (some centres unmarked) [Compound 140]	1.15 nM	1.15 nM	–	–
C=CCOC(=O)Oc1c(C)c2c(c3c1[C@H]1SC[C@]4(NCCc5cc(O)c(OC)cc54)C(=O)OC[C@@H]3N3C1[C@H]1c4c(cc(C)c(OC)c4O)C[C@@H]([C@@H]3C#N)N1C)OCO2 (some centres unmarked) [Compound 141]	–	–	0.123 nM	0.123 nM
COc1cc2c(cc1O)CCN[C@]21CS[C@@H]2c3c(OC(=O)CCCl)c(C)c4c(c3[C@H](COC1=O)N1C2[C@H]2c3c(cc(C)c(OC)c3O)C[C@@H]([C@@H]1C#N)N2C)OCO4 (some centres unmarked) [Compound 142]	1.22 nM	1.22 nM	–	–
CCCCCCCC(=O)Oc1c(C)c2c(c3c1[C@H]1SC[C@]4(NCCc5cc(O)c(OC)cc54)C(=O)OC[C@@H]3N3C1[C@H]1c4c(cc(C)c(OC)c4OC(=O)CCCCCCC)C[C@@H]([C@@H]3C#N)N1C)OCO2 (some centres unmarked) [Compound 145]	102 nM	102 nM	–	–
COc1cc2c(cc1O)CCN[C@]21CS[C@@H]2c3c(OC)c(C)c4c(c3[C@H](COC1=O)N1C2[C@H]2c3c(cc(C)c(OC)c3O)C[C@@H]([C@@H]1C#N)N2C)OCO4 (some centres unmarked) [Compound 149]	0.135 nM	0.135 nM	–	–

Compound	IC50 (HT-29; Homo sapiens, HT-29, 72 h)	IC50 (A-549; Homo sapiens, A549, 72 h)	IC50 (HT-29)	IC50 (A-549)
COc1cc2c(cc1O)CCN[C@]21CS[C@@H]2c3c(OC)c(C)c4c(c3[C@H](COC1=O)N1C2[C@H]2c3c(cc(C)c(OC)c3OC)C[C@@H]([C@@H]1C#N)N2C)OCO4 (some centres unmarked) [Compound 150]	1.32 nM	1.32 nM	–	–
CCOc1c(C)c2c(c3c1[C@H]1SC[C@]4(NCCc5cc(O)c(OC)cc54)C(=O)OC[C@@H]3N3C1[C@H]1c4c(cc(C)c(OC)c4O)C[C@@H]([C@@H]3C#N)N1C)OCO2 (some centres unmarked) [Compound 151]	0.132 nM	0.132 nM	–	–
CCOc1c(C)c2c(c3c1[C@H]1SC[C@]4(NCCc5cc(O)c(OC)cc54)C(=O)OC[C@@H]3N3C1[C@H]1c4c(cc(C)c(OC)c4OCC)C[C@@H]([C@@H]3C#N)N1C)OCO2 (some centres unmarked) [Compound 152]	12.8 nM	12.8 nM	–	–
CCCOc1c(C)c2c(c3c1[C@H]1SC[C@]4(NCCc5cc(O)c(OC)cc54)C(=O)OC[C@@H]3N3C1[C@H]1c4c(cc(C)c(OC)c4O)C[C@@H]([C@@H]3C#N)N1C)OCO2 (some centres unmarked) [Compound 153]	–	–	0.13 nM	0.13 nM
C=CCOc1c(C)c2c(c3c1[C@H]1SC[C@]4(NCCc5cc(O)c(OC)cc54)C(=O)OC[C@@H]3N3C1[C@H]1c4c(cc(C)c(OC)c4O)C[C@@H]([C@@H]3C#N)N1C)OCO2 (some centres unmarked) [Compound 155]	1.3 nM	1.3 nM	–	–
C=CCOc1c(C)c2c(c3c1[C@H]1SC[C@]4(NCCc5cc(O)c(OC)cc54)C(=O)OC[C@@H]3N3C1[C@H]1c4c(cc(C)c(OC)c4OCC=C)C[C@@H]([C@@H]3C#N)N1C)OCO2 (some centres unmarked) [Compound 156]	12.4 nM	12.4 nM	–	–
COc1cc2c(cc1O)CCN[C@]21CS[C@@H]2c3c(OCc4ccccc4)c(C)c4c(c3[C@H](COC1=O)N1C2[C@H]2c3c(cc(C)c(OC)c3O)C[C@@H]([C@@H]1C#N)N2C)OCO4 (some centres unmarked) [Compound 157]	0.122 nM	0.122 nM	–	–
COc1cc2c(cc1O)CCN[C@]21CS[C@@H]2c3c(OCc4ccccc4)c(C)c4c(c3[C@H](COC1=O)N1C2[C@H]2c3c(cc(C)c(OC)c3OCc3ccccc3)C[C@@H]([C@@H]1C#N)N2C)OCO4 (some centres unmarked) [Compound 158]	1.1 nM	1.1 nM	–	–
COc1cc2c(cc1O)CCN[C@]21CS[C@@H]2c3c(OC(=O)C(F)(F)F)c(C)c4c(c3[C@H](COC1=O)N1C2[C@H]2c3c(cc(C)c(OC)c3OC(=O)C(F)(F)F)C[C@@H]([C@@H]1C#N)N2C)OCO4 (some centres unmarked) [Compound 160]	1.09 nM	1.09 nM	–	–
COc1cc2c(cc1O)CCN[C@]21CS[C@@H]2c3c(OC(=O)/C=C/c4ccccc4)c(C)c4c(c3[C@H](COC1=O)N1C2[C@H]2c3c(cc(C)c(OC)c3OC(=O)/C=C/c3ccccc3)C[C@@H]([C@@H]1O)N2C)OCO4 (some centres unmarked) [Compound 162]	5.1 nM	5.1 nM	–	–
CCCC(=O)Oc1c(C)c2c(c3c1[C@H]1SC[C@]4(NCCc5cc(O)c(OC)cc54)C(=O)OC[C@@H]3N3C1[C@H]1c4c(cc(C)c(OC)c4OC(=O)CCC)C[C@@H]([C@@H]3O)N1C)OCO2 (some centres unmarked) [Compound 164]	11.6 nM	11.6 nM	–	–
CCCCCCCC(=O)Oc1c(C)c2c(c3c1[C@H]1SC[C@]4(NCCc5cc(O)c(OC)cc54)C(=O)OC[C@@H]3N3C1[C@H]1c4c(cc(C)c(OC)c4OC(=O)CCCCCCC)C[C@@H]([C@@H]3O)N1C)OCO2 (some centres unmarked) [Compound 169]	1.03 nM	1.03 nM	–	–
CCOc1c(C)c2c(c3c1[C@H]1SC[C@]4(NCCc5cc(O)c(OC)cc54)C(=O)OC[C@@H]3N3C1[C@H]1c4c(cc(C)c(OC)c4O)C[C@@H]([C@@H]3O)N1C)OCO2 (some centres unmarked) [Compound 177]	0.134 nM	0.134 nM	–	–
CCCOc1c(C)c2c(c3c1[C@H]1SC[C@]4(NCCc5cc(O)c(OC)cc54)C(=O)OC[C@@H]3N3C1[C@H]1c4c(cc(C)c(OC)c4O)C[C@@H]([C@@H]3O)N1C)OCO2 (some centres unmarked) [Compound 178]	1.31 nM	1.31 nM	–	–
C=CCOc1c(C)c2c(c3c1[C@H]1SC[C@]4(NCCc5cc(O)c(OC)cc54)C(=O)OC[C@@H]3N3C1[C@H]1c4c(cc(C)c(OC)c4OCC=C)C[C@@H]([C@@H]3O)N1C)OCO2 (some centres unmarked) [Compound 179]	12.5 nM	12.5 nM	–	–
